A word on the Km: it is the concentration of substrate that gives half-maximal velocity. As usually defined, the kcat is the maximal rate divided by the concentration of active sites. In general, Ki refers to the dissociation constant of the complex between target and ligand, obtained from inhibition or displacement. Higher therefore signals a looser hold on the target.

Sequences and labels used below:
T1: efDHQase (3-dehydroquinate dehydratase from Enterococcus faecalis; also DEF) (Enterococcus faecalis, UniProt P36923)
T1 construct: gene aroD; full-length aroD in modified pET-15b, N-terminal 10xHis tag removed with thrombin; expressed in E. coli aroD- pTara; homodimer; catalytic Lys170
T1 sequence (P36923 1-253): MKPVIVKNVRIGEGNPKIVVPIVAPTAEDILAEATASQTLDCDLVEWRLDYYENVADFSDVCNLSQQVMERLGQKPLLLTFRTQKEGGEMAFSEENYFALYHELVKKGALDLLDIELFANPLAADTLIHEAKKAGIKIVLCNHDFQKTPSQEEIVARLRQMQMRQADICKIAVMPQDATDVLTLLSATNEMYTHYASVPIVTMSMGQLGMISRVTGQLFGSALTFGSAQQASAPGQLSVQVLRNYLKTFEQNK

B1: efDHQase (3-dehydroquinate dehydratase from Enterococcus faecalis; also DEF) (Enterococcus faecalis V583) (protein)
chain: T1 sequence (P36923 1-253)
notes: full-length aroD in modified pET-15b, N-terminal 10xHis tag removed with thrombin; expressed in E. coli aroD- pTara; homodimer; catalytic Lys170

Substrate in the first data set: O=C1C[C@@](O)(C(=O)O)C[C@@H](O)[C@@H]1O
Nature of the data set: purified protein. The class given is biochemical, Enterococcus faecalis. Particulars: 0.25 mM NADPH, 50 mM HEPES pH 7.5, 25°C, 10 nM efSHD as coupling enzyme.
On to B1, for which the Km is on record as 65 µM and the kcat was 110 s⁻¹.

The target in another data set is T1, efDHQase (3-dehydroquinate dehydratase from Enterococcus faecalis; also DEF). The data set is described as follows: efSHD-coupled NADPH oxidation assay, […] nm. Type of data set: biochemical.
Conditions: not given
`O=c1ccc2ccc(O)cc2o1` [7-Hydroxycoumarin] showed a Ki of 42 ± 19 µM.
The same measure, in the same setting: the result for `O=c1ccc2cc(O[C@@H]3O[C@H](CO)[C@@H](O)[C@H](O)[C@H]3O)c(O)cc2o1` [Aesculine] reads 180 ± 38 µM; that for `O=c1c(O)c(-c2ccc(O)c(O)c2)oc2c(O[C@@H]3O[C@H](CO)[C@@H](O)[C@H](O)[C@H]3O)c(O)cc(O)c12` [Gossypin], 79 ± 14 µM.
On the same count and under the same terms, the result for `O=c1cc(-c2ccc(O)c(O)c2)oc2cc(O)c([C@@H]3O[C@H](CO)[C@@H](O)[C@H](O)[C@H]3O)c(O)c12` [Homoorientin] reads 140 ± 11 µM; that for `O=c1cc(-c2ccc(O)c(O[C@@H]3O[C@H](CO)[C@@H](O)[C@H](O)[C@H]3O)c2)oc2cc(O[C@@H]3O[C@H](CO)[C@@H](O)[C@H](O)[C@H]3O)cc(O)c12` [Luteolin-3′-7-diglucoside], 89 ± 3 µM.
On the same count and under the same terms, the result for `O=c1cc(-c2ccc(O)c(O)c2)oc2cc(O[C@@H]3O[C@H](CO)[C@@H](O)[C@H](O)[C@H]3O)cc(O)c12` [Luteolin-7-glucoside] reads 69 ± 16 µM; that for `O=C(/C=C/c1ccc(O)c(O)c1)c1ccc(O[C@@H]2O[C@H](CO)[C@@H](O)[C@H](O)[C@H]2O)c(O)c1O` [Marein], 340 ± 79 µM; that for `C[C@@H]1O[C@@H](O[C@H]2[C@H](Oc3cc(O)c4c(=O)cc(-c5ccc(O)cc5)oc4c3)O[C@H](CO)[C@@H](O)[C@@H]2O)[C@H](O)[C@H](O)[C@H]1O` [Rhoifolin], 19 ± 9 µM.
`C[C@@H]1O[C@@H](OC[C@H]2O[C@@H](Oc3c(-c4ccc(O)c(O)c4)oc4cc(O)cc(O)c4c3=O)[C@H](O)[C@@H](O)[C@@H]2O)[C@H](O)[C@H](O)[C@H]1O` [Rutin]: the affinity corresponds to a Ki of 210 ± 28 µM.

The record behind these values is PMC4114755, “Identification of Polyketide Inhibitors Targeting 3-Dehydroquinate Dehydratase in the Shikimate Pathway of Enterococcus faecalis” (PLoS ONE, 2014).
